# Test results reported in patent US20250002969A1, “DISCRIMINATION OF ANTIBIOTIC RESISTANT AND SENSITIVE SAMPLES” (priority 2021, published 2025).
# What was measured:
# [1] = tested on: S. aureus clinical isolates; test: Photoacoustic flow cytometry (PAFC) detections of clinical isolates incubated with oxacillin; assay type: cell-based, Staphylococcus aureus; details: for Treated Detections: oxacillin 1 μmg/ml, 2 hours
# Experimental: In a representative study, total of thirteen samples were tested for the mecA gene using PCR, thus determining their methicillin resistance before photoacoustic testing. Streaks of each S. aureus strain were grown on mannitol salt agar plates. Single colonies from each streak plate were used to regrow strains in mannitol salt broth for 2 hours in a shaking water bath at 36.5 C. That period ensured cells were growing and entering exponential growth phase. Oxacillin was added at a final concentration of 1 μmg/ml to half of each culture and grown for an additional 2 hours. Before processing through PAFC system, 100 μl from each culture was removed and used for growth analysis in an HI plate reader (available from Biotek of Winooski, Vermont). Growth curves were made for each culture by taking the optical density of each treated and untreated culture every minute over a 16-hour period. As described above, it was determined that two hours of antibiotic treatment was sufficient to determine differential growth rates from prior experimentation. Prior to performing photoacoustic testing, treated and untreated samples were incubated side-by-side for two hours. Photoacoustic testing of treated and untreated samples for each isolate were alternated, so that both samples were tested within twenty minutes to allow for similar growth times. Thus, total bacteria number could be compared properly.
# To interpret the photoacoustic data provided by the flow cytometer, k-means clustering was used to guide the differentiation between methicillin resistant and susceptible samples. […] K-means, like other clustering methods, takes data points in a space of one or more dimensions and determines natural groupings of those points by proximity. Given a number of clusters, k, the algorithm separates all points into that number of groups. In a representative study, there was an interest in identifying only resistant and susceptible groups. Thus, k=2 was chosen.
# The ratio of treated detection numbers over untreated numbers was determined, resulting in 13 numbers which were approximately in the range of 0 to 1. Lower numbers indicate that oxacillin was effective in decreasing the S. aureus population. However, there was no ad hoc threshold for determining antibiotic resistance. K-means with two clusters was applied to the data set using the MATLAB programming language (available from Math Works of Natick, Massachusetts). The MATLAB function, kmeans, uses Lloyd's algorithm. For simplicity, Euclidean distance was used for measuring and establishing iterative clusters.
# Because the sample size was relatively small and the distribution was not obviously Gaussian, a nonparametric test was performed to compare the means of the bacterial counts before and after treatment with oxacillin. Using a Wilcoxon matched pairs signed rank test, a p-value of 0.0007 was calculated.
# Photoacoustic Flow Cytometry. A 1000 μm optical fiber with numerical aperture of 0.39 (Thorlabs, Newton, New Jersey) was used to deliver laser light at 532 nm with a 5 ns pulse duration from a Nd:YAG laser (Litron Nano, Boseman, Montana). Laser beam energy was maintained and measured between 1.9 and 2.1/mJ for all PAFC experiments. The optical fiber was placed 5 mm away from a quartz tube (Quartz 10 QZ, Charles Supper, Natick, Massachusetts) with 10 μm thick walls. Samples were pumped through the quartz tube inside a 3D printed flow chamber. The laser beam was assumed Gaussian in shape and fluence was calculated to be 0.014 mJ/cm^2 and detection volume was determined to be 0.04 μL.
# [2] = tested on: Staph. aureus clinical isolates; test: Growth curves (optical density) of clinical isolates in presence of daptomycin; assay type: cell-based
# Experimental: Growth curves of multiple clinical isolates of the representative bacteria S. aureus as illustrated in FIGS. 4A through 4D were determined using a BioTek Synergy HI plate reader (available from BioTek Instruments (of Agilent Technologies), Winooski, Vermont). S. aureus isolates growth rates were tested in the presence and absence of the representative antibiotic daptomycin. Differential growth rates were identifiable after two hours of the sixteen-hour growth curve. Two-hour differentiation was confirmed by Newton-Raphson root finding method.
# (§1) Sample preparation. Clinical isolates of Staph. aureus were obtained from the Urisch laboratory at the UPMC Department of Othopaedic Surgery. Isolates were de-identified according to IRB protocol and were stored in 50% glycerol solution at −80° C. Isolates were streaked for single colonies on mannitol salt agar (MSA) plates and cultures were grown in mannitol salt broth, shaking at 36.5° C. Overnight cultures were then diluted into fresh media and regrown for 2 hours to ensure that bacteria were entering exponential growth phase. Exponentially growing cultures were mixed with media or daptomycin in a 1:1 ratio. Daptomycin was added to 0.5 ml of culture to a final concentration of 0.25 μg/ml. Identical cultures were used in all experiments using PAFC and BioTek HI plate reader. For photoacoustic testing, bacteriophage SP1 was added to a concentration of 1000 phage per bacterial cell. Growth curves were performed for 16 hours with measurements taken once every minute.
# Treated and control cultures were placed in a round bottom 96 well culture plate (Falcon microtest 96 well plate 35077, ThermoFisher, Waltham, Massachusetts) and were placed into the BioTek HI plate reader. Optical density (OD) measurements were taken every minute at 600 nm wavelength. Between measurements, the plate was shaken at 100 rpm and maintained at 36.5+C allowing for bacterial growth. The two-hour time point was determined to be sufficient to differentiate the growth rates. Additionally, multiple replicates of each bacterial strain were grown at 36.5° C. in the BioTek HI plate reader and 100 μL was removed and plated on MSA plates every 10 minutes. Growth curves were made directly from these titers for each strain to give a quantifiable number of bacterial cells for each OD.
# [3] = tested on: Staph. aureus clinical isolates; test: PAFC cell count of clinical isolates in presence of daptomycin, dyed SP1 phage label; assay type: cell-based
# Experimental: All strains were tested in the presence and absence of daptomycin. In a number of studies hereof, cultures were diluted into fresh media and regrown for 2 hours in the presence and absence of […] of daptomycin. Each sample was then incubated at room temperature for 10 minutes with multiple dyed phage per bacterial cell. Incubated samples were then processed through PAFC system 100 and number of detected cells recorded. Isolates were tested in triplicated for both the plate reader and PAFC system.
# as §1
# Photoacoustic Flow Cytometry. […] Laser beam energy was maintained and measured between 1.9 and 2.1/mJ for all PAFC experiments. […] The laser beam was assumed Gaussian in shape and fluence was calculated to be 0.014 mJ/cm^2 and detection volume was determined to be 0.04 μL.
# All strains were tested in the presence and absence of daptomycin. […] Incubated samples were then processed through the PAFC system and number of detected cells recorded. Isolates were tested in triplicate for both the plate reader and PAFC system.
# MRSA = details: cited from earlier work
# VRSA = details: cited from earlier work
smiles,measurement,setting,value
Cc1onc(-c2ccccc2)c1C(=O)N[C@@H]1C(=O)N2[C@@H]1SC(C)(C)[C@@H]2C(=O)O [oxacillin],Treated Detections,[1]; isolate B1899 (mecA Yes),404
same,Treated Detections,[1]; isolate K3237 (mecA No),44
same,Treated Detections,[1]; isolate K3251 (mecA No),7
same,Treated Detections,[1]; isolate K3255 (mecA No),53
same,Treated Detections,[1]; isolate K3261 (mecA Yes),135
same,Treated Detections,[1]; isolate K3262 (mecA No),10
same,Treated Detections,[1]; isolate K3266 (mecA No),18
same,Treated Detections,[1]; isolate K3268 (mecA Yes),110
same,Treated Detections,[1]; isolate K3270 (mecA Yes),134
same,Treated Detections,[1]; isolate K3279 (mecA Yes),175
same,Treated Detections,[1]; isolate K3280 (mecA Yes),179
same,Treated Detections,[1]; isolate K3282 (mecA Yes),689
same,Treated Detections,[1]; isolate K3287 (mecA No),2
same,mean ratio of treated to untreated,"[1]; second subgroup, markedly different growth",0.10
same,mean ratio of treated to untreated,[1]; subgroup with similar growth rates (isolates with mecA gene),0.87
CCCCCCCCCC(=O)N[C@@H](Cc1c[nH]c2ccccc12)C(=O)N[C@H](CC(N)=O)C(=O)N[C@@H](CC(=O)O)C(=O)N[C@@H]1C(=O)NCC(=O)N[C@@H](CCCN)C(=O)N[C@@H](CC(=O)O)C(=O)N[C@H](C)C(=O)N[C@@H](CC(=O)O)C(=O)NCC(=O)N[C@H](CO)C(=O)N[C@@H]([C@H](C)CC(=O)O)C(=O)N[C@@H](CC(=O)c2ccccc2N)C(=O)O[C@@H]1C [daptomycin],growth (optical density) treated vs untreated,"[2]; heterogeneous strain A, FIG. 4C",delay of exponential growth
same,growth (optical density) treated vs untreated,"[2]; heterogeneous strain B, FIG. 4D",no delay in initial growth is observed but severe retardation of growth starting at 1.5 hours
same,growth (optical density) treated vs untreated,"[2]; resistant clinical isolate, FIG. 4B, 2 h and 16 h",no delay or inhibition of growth
same,growth (optical density) treated vs untreated,"[2]; susceptible clinical isolate, FIG. 4A, 2 h and 16 h",complete inhibition of growth
same,"cells detected by PAFC, treated vs untreated",[3]; heterogeneous resistant strains,intermediary number of cells detected
same,"cells detected by PAFC, treated vs untreated",[3]; homogeneous resistant strains,identical or nearly identical numbers of cells
same,cell count via photoacoustic detection,"[3]; susceptible clinical isolate, FIG. 4A, two-hour timepoint",zero detection
same,MIC,MRSA,0.25 to 1 µg/mL
same,MIC,VRSA,> 4 µg/mL
